The values below come from ChEMBL document CHEMBL3988442, “University of Dundee, Small-Polar-MMV Screening Library” (2021).

Several values for one entry are separate records, joined by “and”; a condition that tells them apart may be missing. Equal values may be shown once. Bounds are passed on as bounds.

As usually defined, the IC50 is the midpoint of a concentration-inhibition curve. High values mean a need for much substance, low ones inhibition by little substance.

In this assay the target is T1, Coenzyme A biosynthesis bifunctional protein CoaBC (Mycobacterium tuberculosis (strain ATCC 25618 / H37Rv), UniProt P9WNZ1).
T1 sequence (P9WNZ1 whole entry): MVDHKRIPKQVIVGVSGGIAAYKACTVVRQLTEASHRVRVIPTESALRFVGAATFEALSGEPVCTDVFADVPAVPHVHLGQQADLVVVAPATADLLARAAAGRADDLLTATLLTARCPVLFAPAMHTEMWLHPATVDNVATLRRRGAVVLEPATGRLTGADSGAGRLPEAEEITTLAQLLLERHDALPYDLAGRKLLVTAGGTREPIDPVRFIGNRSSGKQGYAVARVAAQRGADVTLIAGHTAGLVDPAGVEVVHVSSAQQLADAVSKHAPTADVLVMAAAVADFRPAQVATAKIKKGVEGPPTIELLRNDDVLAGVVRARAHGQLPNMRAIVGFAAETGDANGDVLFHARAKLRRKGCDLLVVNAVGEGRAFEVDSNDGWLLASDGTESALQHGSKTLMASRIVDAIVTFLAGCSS
In words: Biomol Green assay for MtCoaBC inhibitor, OD650 read. Type of assay: functional.

The molecule `CN(Cc1ccccc1)C(=O)Cn1nc(N2CCOCC2)ccc1=O` showed a half-maximal inhibitory concentration (IC50) of over 30.2 µM.

Take `Cc1ccc(S(=O)(=O)Nc2ccc(N3CCSCC3)c(C(=O)O)c2)s1`: the IC50 was > 30.2 µM (2×) and 32.4 µM and 45.1 µM.

The molecule `COc1ccccc1N1CCC(CNCc2ccc(C#N)cc2)C1` (stereo not drawn) had an IC50 of over 30.2 µM.

Turning to `Cc1ccc(C(=O)O)c(N2Cc3cnc(C(C)(C)C)nc3C2)n1`, the IC50 is over 30.2 µM.

`O=C(c1cc2cc(F)ccc2[nH]1)N1CCCCC1Cn1cccn1` (stereo not drawn) showed an IC50 of over 30.2 µM.

`O=C(NC1CCCC1)[C@@H]1CN(Cc2nccs2)C[C@H]2OCC[C@H]21` gave an IC50 of over 30.2 µM.

In turn, `COCCC1CCN([C@@H]2c3ccccc3C3(CCNCC3)[C@H]2O)CC1` had a 50% inhibitory concentration (IC50) of over 30.2 µM.

For `CC1COCCN1C(=O)Cc1cc(Cl)c2c(c1)OCCO2` (stereo not drawn), the IC50 was over 30.2 µM.

Molecule `COc1ccc(CN2CCC3(CCCN(C)C3=O)C2)c(OC)c1C` (stereo not drawn) gave an IC50 of over 30.2 µM.

Turning to `Cc1nn(CCO)c(C)c1CNCc1cccnc1N(C)C`, the IC50 was over 30.2 µM.

`CC(C)N1CCC(C(=O)N2CCc3c(nc(CC4CC4)[nH]c3=O)C2)CC1` had an IC50 of over 30.2 µM.

The molecule `c1ccc(-c2nc(CN3CCCC3Cn3cncn3)co2)cc1` (stereo not drawn) gave an IC50 of over 30.2 µM.

As to `CC(C)N(CC(C)(C)O)C(=O)NC1CC1`, the IC50 was over 30.2 µM.

Molecule `C[S+]([O-])c1nncn1CC(=O)c1ccc(Cl)c(Cl)c1` (stereo not drawn) showed an IC50 of over 30.2 µM.

As to `CCc1cc(NCCN2CCNC2=O)n2nccc2n1`, the IC50 was over 30.2 µM.

In turn, `CN(CC(C)(CO)CO)C(=O)Nc1cc(Cl)cc(Cl)c1` gave an IC50 of over 30.2 µM.

In turn, `COc1c(C2CCCN2CC(=O)Nc2nccs2)c(C)nn1C` (stereo not drawn) gave an IC50 of over 30.2 µM.

Molecule `O=C(c1cccnc1SC/C=C/c1ccccc1)N1CCOCC(O)C1` (stereo not drawn) had an IC50 of over 30.2 µM.

As for `OC(CN1CCC(c2ccn[nH]2)CC1)c1ccc(F)cc1F` (stereo not drawn), the IC50 was over 30.2 µM.

`COCCC(Cc1cccc(Br)c1)C(=O)O` (stereo not drawn) gave an IC50 of over 50.1 µM.

Molecule `CC1CCN(c2nc(O)cc(C3CC(=O)N(C4CCCCC4)C3)n2)CC1` (stereo not drawn) gave a concentration for half-maximal inhibition (IC50) of over 30.2 µM.

In turn, `COc1c(-c2ccc(O)cc2)oc2cc(O)cc(O)c2c1=O` [ISOKAEMPFERIDE] had an IC50 of over 30.2 µM.

For the molecule `O=S(=O)(c1cccc(F)c1)N1C[C@@H]2COC[C@]2(COCC2CC2)C1`, the IC50 was over 30.2 µM.

In the case of `Cc1noc(C)c1CN1CCn2cc(CNc3ccccn3)nc2C1`, the IC50 is over 30.2 µM.

Turning to `O=C(NCCC(=O)N1CCCC1)c1ccc(SCc2cccnc2)cc1`, the IC50 was over 30.2 µM.

`COc1ccc(-n2cc(CNC(=O)c3cc[nH]n3)nn2)cc1` had an IC50 of over 30.2 µM.

For `FC(F)(F)c1cccnc1N1CCC(OC2CCOCC2)CC1`, the IC50 was over 30.2 µM.

Molecule `COc1cc(O)cc2c1C(=O)CC(c1ccc(O)cc1)O2` (stereo not drawn) had an IC50 of over 30.2 µM.

Take `CC1CCN(CCNC(=O)c2ccn(-c3ccc(F)cc3)n2)CC1`: the IC50 was over 30.2 µM.

In the case of `Cc1nn(CC(=O)N2CCN(c3ncccn3)CC2)c(C)c1Cl`, the IC50 was over 30.2 µM.

In turn, `Cn1cnc(S(=O)(=O)NCCN2CCCCCC2)c1Cl` gave an IC50 of over 30.2 µM.

For the molecule `Cc1ccc(C)c(CC(=O)NC2(C#N)CCOCC2)c1`, the IC50 was over 30.2 µM.

For the molecule `Cc1cc(NC(=O)CN2CCN(c3nccs3)C(C)C2)no1` (stereo not drawn), the IC50 was over 30.2 µM.

In turn, `CS(=O)(=O)c1ccc(CN2C[C@H]3CC[C@@H]2CN(c2ncccn2)C3)cc1` gave an IC50 of over 30.2 µM.

In the case of `Cc1cc(C)nc(N2CCC(C(=O)Nc3ncc[nH]3)CC2)n1`, the IC50 is over 30.2 µM.

Consider `Cc1cccc(CN2CC3(CCN(C(N)=O)CC3)OCC2=O)n1`, for which the IC50 was over 30.2 µM.

As for `COc1ccc(-c2nnsc2C(=O)N2CCC(C(N)=O)CC2)cc1`, the IC50 is over 30.2 µM.

`O=C(CCNc1ncccn1)Nc1ccc(Cn2cncn2)cc1`: the IC50 is over 30.2 µM.

For `Fc1ccc(Oc2nccnc2C2CCN(C3CCOCC3)CC2)cc1`, the IC50 is over 30.2 µM.

The molecule `Cc1csc(CCNCc2cnc3c(c2)c(C)nn3C)n1` gave an IC50 of over 30.2 µM.

Consider `COCC1c2nnn(CC3CC3)c2CCN1C(=O)N1CCCC1` (stereo not drawn), for which the IC50 was over 30.2 µM.

Regarding `CCc1nc(NCCc2c(C)nn(CC)c2C)c2cnn(C)c2n1`, the IC50 was over 30.2 µM.

`CC(C)NC1CCN(CCc2ccc3c(c2)CCO3)CC1`: the IC50 is over 50.1 µM.

Take `Cc1cnn(CC2CCCN2Cc2nnc(-c3ccccc3)o2)c1` (stereo not drawn): the IC50 was over 30.2 µM.

As to `Cc1cncc(C(=O)N2CCO[C@H]3[C@H](OCCN(C)C)CC[C@@H]32)c1`, the IC50 is over 30.2 µM.

In the case of `Cc1nn(C)c(Cl)c1C1CCCN1CC(=O)Nc1cccnc1` (stereo not drawn), the IC50 was over 30.2 µM.

Regarding `CC(C)c1nc(CNC2CCN(C(=O)OC(C)(C)C)CC2)cs1`, the IC50 is over 30.2 µM.

`Cc1nc2c(c(=O)[nH]1)CN(Cc1ccc3c(c1)CCCN3C)CC2`: the IC50 is over 30.2 µM.

For the molecule `COc1cccc2cc(CNCc3ccc(N4CCCC4)nc3)oc12`, the IC50 is over 30.2 µM.

In turn, `CCC(c1ccc(F)cc1F)N1CCN(CCO)CC1` (stereo not drawn) had an IC50 of over 30.2 µM.

Take `CC(NC(=O)CSCC(N)=O)c1ccc(Oc2ccccc2)cc1` (stereo not drawn): the IC50 was over 30.2 µM.

Molecule `CC(c1nc(-c2ccccc2)no1)N1CCc2c(ncn2C2CC2)C1` (stereo not drawn) gave an IC50 of over 30.2 µM.

`Cc1ncnc2c1CCN(C(=O)c1ccoc1)CC2` had an IC50 of over 30.2 µM.

`COc1cc(CNC2CCc3nc(C)nn3C2)cc2c1OCO2` (stereo not drawn) showed an IC50 of over 30.2 µM.

Turning to `Cc1cnc(C)c(-c2cccc(-c3ccn(CCN4CCCC4)n3)c2)n1`, the IC50 was over 30.2 µM.

With `CC(C)CN1C[C@@H]2OCC(=O)N(c3ccccc3)[C@@H]2C1`, the IC50 is over 30.2 µM.

The molecule `Cc1cccc(CS(=O)(=O)NCc2nn(C)c3c2COCC3)c1` had an IC50 of over 30.2 µM.

`Cc1cc(C2CCCN2CCC(=O)N2CCc3sccc3C2)no1` (stereo not drawn): the IC50 was over 30.2 µM.

Molecule `COc1ccc(Cl)cc1C(=O)NCCNc1cnccn1` gave an IC50 of over 30.2 µM.

The molecule `Cc1cccc(NC2CCN(C(=O)Nc3cn[nH]c3)CC2)n1` gave an IC50 of over 30.2 µM.

As for `Cc1ccc(NC2CCN(C(=O)c3cnn(C(C)(C)C)c3)CC2)nn1`, the IC50 is over 50.1 µM.

`CCc1ncc(C(=O)N2CC[C@@H]3CC[C@H](C2)N3C)cn1` gave an IC50 of over 30.2 µM.

`O=C1O[C@@H]2CN(c3ccc(Cl)cn3)C[C@@H]2N1CCc1ccc(F)cc1`: the IC50 was over 30.2 µM.

With `O=C(c1ccnc(C2CCNCC2)c1)N1CCCC(CO)C1` (stereo not drawn), the IC50 was over 30.2 µM.

Molecule `NC(=O)C1CN(C(=O)Nc2ccccc2Oc2ccccc2Cl)CCO1` (stereo not drawn) showed an IC50 of over 30.2 µM.

Molecule `COCCNC(=O)c1nc2c(s1)CCCN2c1ccc(C)nn1` showed an IC50 of over 30.2 µM.

The molecule `CCN1CCCC(O)(CN(C)Cc2ccc(C)o2)C1` (stereo not drawn) gave an IC50 of over 30.2 µM.

On to `CC(C)=CCn1ncc(N2CCOCC2)cc1=O`, for which the IC50 is over 30.2 µM.

For the molecule `OCCN(Cc1ccncc1)CC1(c2ccc(Cl)cc2)CCCC1`, the IC50 was over 30.2 µM.

Regarding `CCc1ncc(C(=O)NCC2CCN(Cc3ccncc3)CC2)cn1`, the IC50 is over 30.2 µM.

In turn, `Cc1nnc(N2C[C@@H](OCC3CCCC3)[C@H]3OCCC[C@H]32)s1` showed an IC50 of over 30.2 µM.

Turning to `CCN(CCO)C[C@@H]1CN(C(=O)c2ccc(C)s2)C[C@@H]1CO`, the IC50 was over 30.2 µM.

Regarding `COc1ccc(CC(=O)Nc2ccc3ncn(C(C)C)c(=O)c3c2)cc1`, the IC50 was over 30.2 µM.

As for `CSc1nc(C)cc(N2CCC(c3ncc[nH]3)CC2)n1`, the half-maximal inhibitory concentration (IC50) is over 30.2 µM.

Take `O=C1CN(Cc2occc2C(=O)NCCc2ccc(F)cc2)CCN1`: the IC50 was over 30.2 µM.

`CS(=O)(=O)NC1CCN(C(=O)NCCc2ccccc2F)CC1` had an IC50 of over 30.2 µM.

On to `Cc1cccc(-c2cc(C(=O)O)sn2)c1`, for which the IC50 is over 50.1 µM.

As for `Cc1cnc(NC(=O)C(C)Oc2ccc3c(c2)OCO3)s1` (stereo not drawn), the IC50 is over 30.2 µM.

`CN1CCN([C@H]2CCN(C(=O)c3cc(Cl)cn3C)C[C@H]2CCCO)CC1` had an IC50 of over 30.2 µM.

Regarding `O=C(Nc1ccc(-n2cncn2)nc1)N(CC1CCOC1)C1CC1` (stereo not drawn), the concentration for half-maximal inhibition (IC50) was over 30.2 µM.

For `Cn1cc(CN2CCCC(c3nccnc3-c3cccc(F)c3)C2)cn1` (stereo not drawn), the IC50 is over 30.2 µM.

`Cc1ccc(CN2CCN(C3CCCC3)CC2CCO)o1` (stereo not drawn) showed an IC50 of over 30.2 µM.

`CC(C)C(NC(=O)NCC1(CO)CC1)c1nnc2n1CCC2` (stereo not drawn) gave an IC50 of over 30.2 µM.

`COC(=O)C(C)CN(C)S(=O)(=O)c1c(Br)cc2[nH]c(=O)oc2c1Cl` (stereo not drawn) had an IC50 of over 30.2 µM.

The molecule `O=c1cc(C2CCNCC2)nc(CCc2ccccn2)[nH]1` showed an IC50 of over 30.2 µM.

`CCn1ccnc1CNCc1ccc(C)cc1OC(C)(C)C` showed an IC50 of over 30.2 µM.

Regarding `Cc1cc(C)cc(-n2ncc3c2CCCC3N)c1` (stereo not drawn), the IC50 is over 30.2 µM.

`CC(C)C(=O)N1CCCC(Cc2cccnc2)C1` (stereo not drawn) showed an IC50 of over 30.2 µM.

In turn, `O=C(NCC1CC1)[C@H]1C[C@@H]2CN(S(=O)(=O)Cc3ccccc3)C[C@H]1O2` showed an IC50 of over 30.2 µM.

`Cn1cnc2cc(NC(=O)c3n[nH]c4c3CCC4)ccc21` gave an IC50 of over 30.2 µM.

Regarding `COC(=O)c1ccc(S(=O)(=O)N2CCC(Oc3cccnn3)CC2)cc1`, the IC50 was over 30.2 µM.

As for `CC1(C)CN(CCC(=O)NCc2cccc(Cl)c2)CC[C@]1(C)O`, the IC50 was over 30.2 µM.

As to `CN1CCCC(CNC(=O)N(C)Cc2ccc(Cl)c(F)c2)C1` (stereo not drawn), the IC50 was over 30.2 µM.

Molecule `O[C@]12CCNC[C@H]1CN(c1ncccc1Cl)CC2` had an IC50 of over 30.2 µM.

For the molecule `CC(C)CCn1c(=O)n(CCn2cccc2)c2cc(C(=O)O)cnc21`, the IC50 was over 30.2 µM.

`CCN1CCOCC2(CCCN(C(=O)c3cnccn3)C2)C1` (stereo not drawn) showed an IC50 of over 30.2 µM.

Consider `CCc1ncncc1C(=O)NCCNS(=O)(=O)c1ccc(C)cc1`, for which the IC50 is over 30.2 µM.

`CN(Cc1cccnc1)CC1CC12CCN(Cc1nccs1)CC2` (stereo not drawn) had an IC50 of over 50.1 µM.
